The text below walks through data of US20030082200A1, “52 kda protein from coagulase negative staphylococci and fragments thereof” (priority 2000, published 2003).

Experiment [1] concerns immobilized Vn binding to S. epidermidis strain BD5703. Kind of experiment: Inhibition test: binding of 3H-labeled bacteria to Vn coated wells. The note with it: for Effect on BD5703 binding of immobilized Vn (in words): component added at the same time as bacteria. In kind it is cell-based, Staphylococcus epidermidis. The procedure: (§1) ^3H-labeled bacteria were used for these tests. In brief, half a milliliter of an overnight cultured bacteria in TH broth was diluted in 5 ml TH broth containing 50 μCi of [methyl-^3H]thymidine (Amersham Plc., Buckinghamshire, UJK) and cultured for 5 hours at 37° C. on a gyrator shaker with vigorous agitation.
In another experiment, 50 μl bacteria (2×10^7cfu/ml) were mixed with the same volume of four mono-carbohydrates (0.1M D-fucose, 0.1M D-galactose, 0.1M D-glucose and 0.1M D-mannose), heparin (2 mg/ml), hyaluronic acid (2 mg/ml) or Vn (20 μg/ml). These mixtures with bacteria were incubated for 1 hour at 37° C. Heparin sodium salt and hyaluronic acid were purchased from Fluka Chemie AG, Buchs, Switzerland)
(§2) Finally, all wells were washed by PBS 5 times, individual wells were removed and immersed in 2.5 ml scintillation fluid (BDH chemicals, Pool, UK) and the radioactivity was counted in a liquid scintillation counter (Beckman Instruments, Fullerton, Calif., USA). Quantitation of relative binding percentage was achieved by the radioactivity from experimental groups in relation to the radioactivity from non-treated group.

Another experiment has as its system 16 kDa protein of BD5703. As to the kind of experiment: Autoradiograph inhibition test: labeled Vn binding to blotted surface proteins. Also noted: species or system Staphylococcus epidermidis. Particulars: competing proteins 10 μg/ml; heparin, hyaluronic acid 1 mg/ml; autoradiography. The procedure: (§3) SDS-PAGE was performed on mini-Protean II cell (Bio-Rad, Richmond, Calif.) as previously described (16). The bacterial surface structures were extracted by 1M lithium chloride (pH 5) with protease inhibitor (Boehringer Mannheim, Mannheim, Germany) at 37° C. for 2 hours with end to end rotation. Extract was subjected to homogenous gel (12%) or gradient gel (4-15%) electrophoresis. The running and transfer conditions were as previously described (17).
(§4) The PDVF membranes (Micron Separations INC., Westborough, USA) were saturated with incubation in blocking buffers I and II (buffer I containing 0.6% ethanolamine, 0.9% glycine, 1% polyvinylpyrrolidone and 25% methanol pH 9.6; buffer II containing 0.6% ethanolamine, 0.9% glycine, 0.05% gelatin hydrolysate and 0.125% Tween 20 pH 9.6) for 15 min respectively (18). Saturated membranes were rinsed three times in PBST (PBS with 1% Tween 20). Then, the membranes were incubated with ^125I-labeled Vn (0.4 μg/ml) in PBST or in PBST supplemented with 1.05 M sodium chloride (final sodium chloride concentration 1.2M) overnight at 20° C. The membranes were washed and dried, then examined by autoradiography with X-Omat AR film (Eastman Kodak) after 3 days storage at −70° C.
(§5) For inhibition tests, the membrane with retained bacterial surface molecules was cut to individual strips, and then incubated with labeled Vn (0.4 μg/ml) in PBST mixed with different unlabeled competing molecules, including Vn (10 μg/ml), fibronectin (10 μg/ml), fibrinogen (10μg/ml), thrombospondin ([…]), plasminogen (10 μg/ml), human immunoglobulins (10 μg/ml), hemopexin (10 μg/ml), heparin (1 mg/ml). In a separate experiment, the strips were preincubated with heparin (1 mg/ml) and hyaluronic acid (1 mg/ml) for 1 hour at 20° C. prior to adding labeled Vn.

In another experiment the test system is 38 kDa protein of BD5703. The description is as above. Set-up: species or system Staphylococcus epidermidis. Particulars: competing proteins 10 μg/ml; heparin, hyaluronic acid 1 mg/ml; autoradiography. The procedure: as §3, §4, §5
The test system of another experiment is 52 kDa protein of BD5703. Described as above. The note with it: competing proteins 10 μg/ml; heparin, hyaluronic acid 1 mg/ml; autoradiography. Also noted: species or system Staphylococcus epidermidis. How it is done:
as §3, §4, §5

In the next experiment the test system is 21 kDa protein of BD5703. The description is as above. Particulars: competing proteins 10 μg/ml; heparin, hyaluronic acid 1 mg/ml; autoradiography. Set-up: species or system Staphylococcus epidermidis. How it is done:
as §3, §4, §5

Experiment [2] relates to immobilized Vn binding to S. epidermidis strain BD5703. As to the kind of experiment: Inhibition test: binding of 3H-labeled bacteria to Vn coated wells. In kind it is cell-based, Staphylococcus epidermidis.
The next experiment relates to BD5703 surface proteins. As to the kind of experiment: Autoradiograph inhibition test: labeled Vn binding to blotted surface proteins. Also noted: species or system Staphylococcus epidermidis. Particulars: unlabeled Vn 10 μg/ml; autoradiography. The procedure: as §3, §4, §5
For experiment [3], the system named is immobilized S. epidermidis strain BD5703. Kind of experiment: Binding of soluble 125I-labeled Vn to cells immobilized on ELISA plate wells. Also noted: species or system Staphylococcus epidermidis. The note with it: two-fold diluted 125I-Vn, maximally 5 μg/ml; FIG. 1. The procedure: (§6) Fifty micrograms of Vn was labeled with Na ^125I (Amersham Plc., Buckinghamshire, UK) using the modified chloramine-T method (specificity, 1×10^6 cpm/μg), and used in a minor modified soluble binding test with final reaction volume of 150 μl in PBS (15). During binding experiments, radiolabeled protein were diluted to approx. 0.025 μg (25,000cpm) and incubated with bacteria (10^9 cells per test tube). In an alternative method, cells of BD5703 were immobilized on ELISA plates (Costar Co., Cambridge, USA) by incubating 100 μl of bacterial suspension (2×10^7 cells in PBS) for 30 min at 37° C. Non-attached bacteria were removed by 3 washes with PBS. The remaining sites on the plastic were blocked by 2%, a bovine serum albumin in PBS (BSA-PBS) for 1 hour at 37° C. The wells were washed with PBS, and two-fold diluted ^125I-labeled Vn in 1% BSA-PBS (maximally 5 μg/ml) was added. Wells coated with 1% BSA served as background. After incubation at 37° C. for 45 min and washes with PBS, individual wells were removed and the radioactivity was measured in a gamma counter (LKB-Wallac, Turku, Finland).

Experiment [4] has as its system S. epidermidis strain BD5703. Kind of experiment: Bacterial binding of soluble 125I-labeled Vn. Set-up: species or system Staphylococcus epidermidis. Particulars: less than 5% is considered as negative binding. The procedure: as §6
A further experiment has as its system S. aureus strain V8. Kind of experiment: Bacterial binding of soluble 125I-labeled Vn. The note with it: reference strain V8. Set-up: species or system Staphylococcus aureus. The procedure: as §6
In the next experiment the test system is S. epidermidis BD5703. As to the kind of experiment: Proteolytic treatment of bacterial cells, binding of immobilized Vn. It is filed as cell-based, Staphylococcus epidermidis. The note with it: BD5703 cells treated with protease; non-treated control = 100. The procedure:
as §1
(§7) 3H-labeled bacteria cells (5×10^8) were suspended in 1 ml PBS heated at 100° C. for 30 min and rapidly cooled. The same amount of bacteria was treated by pronase E, protease K and trypsin (Sigma Chemical Co., St. Louis, USA) as previously described (15). After washes in PBS, 100 μl (1×10^7 cells) treated bacterial suspension were added into the Vn coated wells.
as §2

The subject of a further experiment is S. aureus V8. Described as above. In kind it is cell-based, Staphylococcus aureus. The note with it: V8 cells treated with protease; non-treated control = 100. The procedure: as §1, §7, §2
The subject of the next experiment is immobilized Vn. Kind of experiment: Trypsin treatment of Vn-coated wells, binding assay with 3H labeled bacteria. It is filed as cell-based. Particulars: trypsin 2 μg/well, 37° C. for 2 hours. How it is done:
The wells pre-adsorbed with Vn were trypsinized at a concentration of 2 μg/well in PBS with 1 mM CaCl2 (37° C. for 2 hours) following an additional incubation with soybean trypsin inhibitor (4 μg/well) at 37° C. for 30 min in same buffer (15). The wells were then blocked by BSA and subjected to binding assay with ^3H labeled bacteria.

[5] abbreviates: inhibitor 1 mg/ml, added at the same time as bacteria.

As to `O=C[C@@H](O)[C@@H](O)[C@H](O)[C@H](O)CO` [D-mannose], the “Effect on BD5703 binding of immobilized Vn (in words)” value (“Effect on BD5703 binding” for short) in experiment [1] was “not by carbohydrates”.
For hemopexin: human hemopexin, purified, the “Inhibition of labeled Vn binding to the 16 kDa band” value (shortened to “Inhibition … to the 16 kDa band”) in the experiment on 16 kDa protein of BD5703 is reported as “slightly blocked”. Besides, the “Inhibition of labeled Vn binding to the 38 kDa band” value (from here on “Inhibition … to the 38 kDa band”) with 38 kDa protein of BD5703 was “slightly blocked”. Moreover, the “Inhibition of labeled Vn binding to the 52 kDa band” value (“Inhibition … to the 52 kDa band” below) in the experiment with 52 kDa protein of BD5703 is reported as “slightly blocked”.
Heparin sodium salt [Heparin 1]: the “Inhibitory ability compared to hyaluronic acid” value in [1] (added at the same time as bacteria) is “more than 2 fold”. In addition, the “Effect on BD5703 binding” value in [1] is on record as “reduced significantly”; in [2] (component preincubated with Vn coated wells), “increased the binding”. Also, the Relative binding percentage is 18% in [1] (setting [5]) and 135% in [2] (inhibitor 1 mg/ml, preincubated with Vn coated wells for 2 hours, then bacteria added). Further, the “Inhibition of labeled Vn binding to the 21 kDa band” value in the experiment with 21 kDa protein of BD5703 is “not 21 kDa”. In addition, in the experiment with 16 kDa protein of BD5703, the “Inhibition … to the 16 kDa band” value is reported as “almost erase”. Further, the “Inhibition … to the 38 kDa band” value in the experiment with 38 kDa protein of BD5703 is given as “almost erase”. Besides, in the experiment with 52 kDa protein of BD5703, the “Inhibition … to the 52 kDa band” value was “almost erase”.
Regarding `O=C[C@H](O)[C@@H](O)[C@@H](O)[C@H](O)CO` [D-galactose], in [1], the “Effect on BD5703 binding” value is listed as “not by carbohydrates”.
In experiment [1] (inhibitor 10 μg/ml, added at the same time as bacteria, control without inhibitor = 100), “Soluble Vn: human vitronectin, purified; glycoprotein; also used 125I-labeled” had a Relative binding percentage of 40%. Also, the “Inhibition of binding of immobilized Vn” value in [1] (soluble Vn added with bacteria) is on record as “about 60%”. Besides, in the experiment with BD5703 surface proteins, the “Inhibition of binding of labeled Vn to BD5703 surface proteins” value is “could be inhibited”. In addition, the “Binding of 125I-Vn to immobilized cells” value in experiment [3] was “dose-related manner”. Further, the “Level of binding of radioactively labeled Vn in solution” value in experiment [4] is “more than 5%”; with S. aureus strain V8, 14.2%.
With `O=C[C@H](O)[C@@H](O)[C@H](O)[C@H](O)CO` [D-glucose], in experiment [1], the “Effect on BD5703 binding” value was “not by carbohydrates”.
Still for that read-out and setting: next, `C[C@@H](O)[C@H](O)[C@H](O)[C@@H](O)C=O` [D-fucose]: “not by carbohydrates”.
For the compound “plasminogen: human plasminogen from Sigma”, the “Inhibition … to the 16 kDa band” value with 16 kDa protein of BD5703 is on record as “slightly blocked”. The “Inhibition … to the 38 kDa band” value in the experiment on 38 kDa protein of BD5703 was “slightly blocked”. Further, the “Inhibition … to the 52 kDa band” value in the experiment on 52 kDa protein of BD5703 is “slightly blocked”.
As for fibrinogen, in the experiment with 16 kDa protein of BD5703, the “Inhibition … to the 16 kDa band” value is given as “slightly blocked”. For the same compound, the “Inhibition … to the 38 kDa band” value in the experiment on 38 kDa protein of BD5703 was “slightly blocked”. Further, the “Inhibition … to the 52 kDa band” value in the experiment on 52 kDa protein of BD5703 is reported as “slightly blocked”.
Turning to Trypsin, the “Relative percentage binding of immobilized Vn” value in the experiment with S. epidermidis BD5703 is on record as 67%; in the experiment on S. aureus V8, 70%. Also, the “Bacterial binding after trypsin treatment of immobilized Vn” value with immobilized Vn is recorded as “no binding was obtained”.
Regarding fibronectin, the “Inhibition … to the 16 kDa band” value in the experiment on 16 kDa protein of BD5703 was “slightly blocked”. Besides, the “Inhibition … to the 38 kDa band” value in the experiment on 38 kDa protein of BD5703 was “slightly blocked”. In addition, the “Inhibition … to the 52 kDa band” value in the experiment with 52 kDa protein of BD5703 was “slightly blocked”.
With hyaluronic acid, the “Effect on BD5703 binding” value in experiment [1] was “reduced significantly”. In addition, the Relative binding percentage in experiment [1] (setting [5]) amounted to 41%. Also, in the experiment with 38 kDa protein of BD5703, the “Inhibition … to the 38 kDa band” value is “inhibited”. For the same compound, the “Inhibition … to the 52 kDa band” value in the experiment on 52 kDa protein of BD5703 is listed as “inhibited”.
Regarding thrombospondin: human thrombospondin, the “Inhibition … to the 16 kDa band” value in the experiment on 16 kDa protein of BD5703 is “slightly blocked”. Moreover, the “Inhibition … to the 38 kDa band” value in the experiment on 38 kDa protein of BD5703 is reported as “slightly blocked”. Further, the “Inhibition … to the 52 kDa band” value with 52 kDa protein of BD5703 is “slightly blocked”.
